Experimental data from ChEMBL document CHEMBL5291721, “A preclinical secondary pharmacology resource illuminates target-adverse drug reaction associations of marketed drugs” (Nat Commun, 2023).

Tests used:
Androgen receptor = biological target: T1, Androgen receptor (Rattus norvegicus, UniProt P15207); format: functional
T1 sequence (P15207 whole entry): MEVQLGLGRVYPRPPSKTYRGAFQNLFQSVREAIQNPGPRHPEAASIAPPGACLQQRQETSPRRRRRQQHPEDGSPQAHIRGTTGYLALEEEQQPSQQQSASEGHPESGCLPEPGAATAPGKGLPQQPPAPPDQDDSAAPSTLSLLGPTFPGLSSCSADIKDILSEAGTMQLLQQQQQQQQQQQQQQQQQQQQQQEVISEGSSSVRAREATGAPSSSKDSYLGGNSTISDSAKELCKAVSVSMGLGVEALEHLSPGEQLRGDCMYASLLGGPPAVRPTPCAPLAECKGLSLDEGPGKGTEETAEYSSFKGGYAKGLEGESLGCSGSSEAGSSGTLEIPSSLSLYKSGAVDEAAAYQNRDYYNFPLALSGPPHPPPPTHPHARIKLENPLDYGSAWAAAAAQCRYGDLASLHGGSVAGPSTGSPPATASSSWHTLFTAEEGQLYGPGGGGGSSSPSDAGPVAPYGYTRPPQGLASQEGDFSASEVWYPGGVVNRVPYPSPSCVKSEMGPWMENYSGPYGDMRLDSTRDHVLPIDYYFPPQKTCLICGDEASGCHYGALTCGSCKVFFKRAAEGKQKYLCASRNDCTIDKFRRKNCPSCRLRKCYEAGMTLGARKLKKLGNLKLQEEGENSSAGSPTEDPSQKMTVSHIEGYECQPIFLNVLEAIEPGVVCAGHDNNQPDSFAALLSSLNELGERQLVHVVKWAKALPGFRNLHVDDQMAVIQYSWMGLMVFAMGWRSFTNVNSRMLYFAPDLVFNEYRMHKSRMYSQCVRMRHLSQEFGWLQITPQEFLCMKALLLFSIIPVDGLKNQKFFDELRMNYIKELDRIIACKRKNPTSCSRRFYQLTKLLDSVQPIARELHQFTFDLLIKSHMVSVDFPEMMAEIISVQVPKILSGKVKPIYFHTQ

[1] = biological target: T2, Gamma-aminobutyric acid receptor subunit alpha-1/alpha-2/beta-2/gamma-2 (Homo sapiens, UniProt P14867+P18507+P47869+P47870); format: functional, cell-based
Histamine H1 receptor [2] = biological target: T3, Histamine H1 receptor (Homo sapiens, UniProt P35367); format: functional, cell-based
T3 sequence (P35367 whole entry): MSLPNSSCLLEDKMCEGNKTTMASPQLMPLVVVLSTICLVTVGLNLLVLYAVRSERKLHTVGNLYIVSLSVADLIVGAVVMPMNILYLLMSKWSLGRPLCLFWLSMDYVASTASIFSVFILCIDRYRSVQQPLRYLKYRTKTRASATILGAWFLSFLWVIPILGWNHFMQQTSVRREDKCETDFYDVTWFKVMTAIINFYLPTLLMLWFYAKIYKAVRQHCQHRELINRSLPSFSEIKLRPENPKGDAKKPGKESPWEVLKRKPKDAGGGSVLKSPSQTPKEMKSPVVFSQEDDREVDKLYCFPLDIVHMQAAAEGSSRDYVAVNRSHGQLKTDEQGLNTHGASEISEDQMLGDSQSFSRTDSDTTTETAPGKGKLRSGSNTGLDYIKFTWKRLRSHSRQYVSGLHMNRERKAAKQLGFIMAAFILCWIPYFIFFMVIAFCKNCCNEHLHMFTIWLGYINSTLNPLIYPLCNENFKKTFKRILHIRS

Histamine H1 receptor [3] = biological target: T3, Histamine H1 receptor; format: functional, cell-based; remark: listed apart in the source
[4] = biological target: T2, Gamma-aminobutyric acid receptor subunit alpha-1/alpha-2/beta-2/gamma-2; format: functional, cell-based; remark: listed apart in the source
[5] = biological target: Voltage-dependent N-type calcium channel subunit alpha-1B (Rattus norvegicus, UniProt Q02294); format: functional
Sequence of Voltage-dependent N-type calcium channel subunit alpha-1B (Q02294 whole entry): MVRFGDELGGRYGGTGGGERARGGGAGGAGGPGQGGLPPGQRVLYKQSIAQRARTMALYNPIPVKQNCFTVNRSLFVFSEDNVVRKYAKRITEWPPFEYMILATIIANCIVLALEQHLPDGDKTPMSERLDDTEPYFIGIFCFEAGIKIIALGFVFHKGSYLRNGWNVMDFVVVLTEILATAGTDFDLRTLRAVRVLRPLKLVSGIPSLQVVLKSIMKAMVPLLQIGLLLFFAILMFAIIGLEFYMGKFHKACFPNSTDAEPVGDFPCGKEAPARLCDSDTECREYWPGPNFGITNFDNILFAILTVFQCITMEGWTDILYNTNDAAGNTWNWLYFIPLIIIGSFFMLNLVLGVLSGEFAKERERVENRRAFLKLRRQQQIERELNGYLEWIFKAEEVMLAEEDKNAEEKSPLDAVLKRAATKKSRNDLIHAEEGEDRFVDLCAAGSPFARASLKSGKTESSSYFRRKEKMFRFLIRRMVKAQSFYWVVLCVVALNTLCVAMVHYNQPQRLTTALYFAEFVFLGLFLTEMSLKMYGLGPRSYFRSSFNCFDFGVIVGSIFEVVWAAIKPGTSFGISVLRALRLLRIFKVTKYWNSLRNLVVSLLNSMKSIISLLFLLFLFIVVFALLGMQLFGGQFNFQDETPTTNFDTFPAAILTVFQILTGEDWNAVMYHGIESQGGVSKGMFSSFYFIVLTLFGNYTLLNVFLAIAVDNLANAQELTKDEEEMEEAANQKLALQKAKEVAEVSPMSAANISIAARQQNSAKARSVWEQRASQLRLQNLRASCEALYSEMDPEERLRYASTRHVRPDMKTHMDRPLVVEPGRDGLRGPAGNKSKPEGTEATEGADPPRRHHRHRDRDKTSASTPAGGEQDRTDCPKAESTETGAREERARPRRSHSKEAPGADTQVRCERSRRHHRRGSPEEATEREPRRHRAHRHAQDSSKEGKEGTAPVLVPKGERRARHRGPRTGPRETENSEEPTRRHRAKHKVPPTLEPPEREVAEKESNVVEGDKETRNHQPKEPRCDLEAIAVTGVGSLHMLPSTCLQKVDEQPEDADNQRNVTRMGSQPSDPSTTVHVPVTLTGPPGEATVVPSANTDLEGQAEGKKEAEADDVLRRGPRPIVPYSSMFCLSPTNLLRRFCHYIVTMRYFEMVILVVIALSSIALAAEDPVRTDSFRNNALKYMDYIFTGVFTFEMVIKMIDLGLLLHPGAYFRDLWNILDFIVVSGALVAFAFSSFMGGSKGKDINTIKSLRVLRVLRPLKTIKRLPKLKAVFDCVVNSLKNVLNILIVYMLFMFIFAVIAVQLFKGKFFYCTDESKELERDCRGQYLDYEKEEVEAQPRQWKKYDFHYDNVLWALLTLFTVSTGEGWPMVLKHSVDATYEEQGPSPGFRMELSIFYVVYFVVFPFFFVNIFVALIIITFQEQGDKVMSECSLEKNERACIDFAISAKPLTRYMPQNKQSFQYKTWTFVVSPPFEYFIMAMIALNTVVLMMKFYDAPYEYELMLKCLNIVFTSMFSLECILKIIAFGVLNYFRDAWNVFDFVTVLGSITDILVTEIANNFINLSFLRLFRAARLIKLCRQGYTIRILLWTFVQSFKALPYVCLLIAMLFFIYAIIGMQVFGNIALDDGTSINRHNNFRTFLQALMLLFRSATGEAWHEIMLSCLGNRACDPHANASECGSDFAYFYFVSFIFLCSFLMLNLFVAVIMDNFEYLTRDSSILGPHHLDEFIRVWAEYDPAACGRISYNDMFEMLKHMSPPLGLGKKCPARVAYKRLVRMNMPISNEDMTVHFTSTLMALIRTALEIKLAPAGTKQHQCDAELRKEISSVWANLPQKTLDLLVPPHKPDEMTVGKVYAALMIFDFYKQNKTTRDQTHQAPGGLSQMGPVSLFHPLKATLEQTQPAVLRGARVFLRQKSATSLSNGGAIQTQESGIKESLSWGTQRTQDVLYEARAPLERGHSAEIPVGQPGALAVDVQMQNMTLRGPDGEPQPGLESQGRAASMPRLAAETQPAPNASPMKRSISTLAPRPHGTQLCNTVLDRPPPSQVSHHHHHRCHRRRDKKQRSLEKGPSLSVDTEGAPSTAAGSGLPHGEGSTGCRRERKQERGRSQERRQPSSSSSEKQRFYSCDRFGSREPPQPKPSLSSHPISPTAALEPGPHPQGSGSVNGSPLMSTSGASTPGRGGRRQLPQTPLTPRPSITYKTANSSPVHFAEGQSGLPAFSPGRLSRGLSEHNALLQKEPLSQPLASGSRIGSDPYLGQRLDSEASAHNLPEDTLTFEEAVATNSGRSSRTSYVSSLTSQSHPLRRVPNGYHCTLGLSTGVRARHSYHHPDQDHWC

Glucagon receptor = Glucagon receptor (Homo sapiens, UniProt P47871)
Sequence of Glucagon receptor (P47871 whole entry): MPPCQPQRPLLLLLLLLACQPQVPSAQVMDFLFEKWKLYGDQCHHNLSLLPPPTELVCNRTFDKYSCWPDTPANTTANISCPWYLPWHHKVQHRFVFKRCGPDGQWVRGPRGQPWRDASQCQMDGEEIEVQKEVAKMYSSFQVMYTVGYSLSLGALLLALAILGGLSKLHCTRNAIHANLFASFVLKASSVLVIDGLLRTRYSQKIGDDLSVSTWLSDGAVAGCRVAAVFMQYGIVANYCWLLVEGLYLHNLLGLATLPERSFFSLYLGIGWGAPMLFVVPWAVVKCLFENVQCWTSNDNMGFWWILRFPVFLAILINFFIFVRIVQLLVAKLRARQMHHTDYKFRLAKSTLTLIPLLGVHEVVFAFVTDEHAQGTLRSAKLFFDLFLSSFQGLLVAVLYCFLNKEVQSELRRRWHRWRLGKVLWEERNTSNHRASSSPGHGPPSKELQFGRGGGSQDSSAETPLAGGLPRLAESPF

[6] = biological target: T4, Gastric inhibitory polypeptide receptor (Homo sapiens, UniProt P48546)
T4 sequence (P48546 whole entry): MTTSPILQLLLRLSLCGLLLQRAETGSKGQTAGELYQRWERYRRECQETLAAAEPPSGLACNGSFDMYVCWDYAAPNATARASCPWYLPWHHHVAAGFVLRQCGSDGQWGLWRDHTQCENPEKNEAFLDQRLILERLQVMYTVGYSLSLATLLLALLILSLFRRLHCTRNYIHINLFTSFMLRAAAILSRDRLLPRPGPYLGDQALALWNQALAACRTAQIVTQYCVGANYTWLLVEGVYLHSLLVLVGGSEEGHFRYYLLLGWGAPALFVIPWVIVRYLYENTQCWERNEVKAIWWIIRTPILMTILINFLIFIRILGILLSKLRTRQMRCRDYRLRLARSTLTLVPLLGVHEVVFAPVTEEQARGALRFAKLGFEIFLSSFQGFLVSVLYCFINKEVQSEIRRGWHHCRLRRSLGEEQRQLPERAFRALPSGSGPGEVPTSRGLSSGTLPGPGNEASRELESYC

Histamine H2 receptor = Histamine H2 receptor (Homo sapiens, UniProt P25021)
Sequence of Histamine H2 receptor (P25021 whole entry): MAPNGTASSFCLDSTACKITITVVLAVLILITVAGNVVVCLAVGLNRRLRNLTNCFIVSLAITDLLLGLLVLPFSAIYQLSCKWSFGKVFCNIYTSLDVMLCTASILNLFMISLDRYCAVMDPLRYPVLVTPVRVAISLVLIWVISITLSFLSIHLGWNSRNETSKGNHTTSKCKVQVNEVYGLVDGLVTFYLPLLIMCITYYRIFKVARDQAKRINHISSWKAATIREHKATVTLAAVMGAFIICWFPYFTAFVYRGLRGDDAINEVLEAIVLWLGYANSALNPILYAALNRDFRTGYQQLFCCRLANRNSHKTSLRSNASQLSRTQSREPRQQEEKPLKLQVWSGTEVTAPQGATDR

[7] = biological target: Neurotensin receptor type 1 (Homo sapiens, UniProt P30989)
Sequence of Neurotensin receptor type 1 (P30989 whole entry): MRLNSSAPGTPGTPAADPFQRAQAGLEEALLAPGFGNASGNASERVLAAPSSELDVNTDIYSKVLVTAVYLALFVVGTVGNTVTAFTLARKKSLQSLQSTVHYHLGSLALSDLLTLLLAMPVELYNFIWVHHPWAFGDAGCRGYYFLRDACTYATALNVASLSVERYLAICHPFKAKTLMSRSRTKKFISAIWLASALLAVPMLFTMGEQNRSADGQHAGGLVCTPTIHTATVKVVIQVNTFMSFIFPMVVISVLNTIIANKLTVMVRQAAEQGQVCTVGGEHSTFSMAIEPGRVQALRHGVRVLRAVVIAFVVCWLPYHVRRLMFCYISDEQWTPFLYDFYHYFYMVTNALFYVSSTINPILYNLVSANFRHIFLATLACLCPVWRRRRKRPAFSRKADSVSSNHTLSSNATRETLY

[8] = biological target: T5, Alpha-2A adrenergic receptor (Homo sapiens, UniProt P08913)
T5 sequence (P08913 whole entry): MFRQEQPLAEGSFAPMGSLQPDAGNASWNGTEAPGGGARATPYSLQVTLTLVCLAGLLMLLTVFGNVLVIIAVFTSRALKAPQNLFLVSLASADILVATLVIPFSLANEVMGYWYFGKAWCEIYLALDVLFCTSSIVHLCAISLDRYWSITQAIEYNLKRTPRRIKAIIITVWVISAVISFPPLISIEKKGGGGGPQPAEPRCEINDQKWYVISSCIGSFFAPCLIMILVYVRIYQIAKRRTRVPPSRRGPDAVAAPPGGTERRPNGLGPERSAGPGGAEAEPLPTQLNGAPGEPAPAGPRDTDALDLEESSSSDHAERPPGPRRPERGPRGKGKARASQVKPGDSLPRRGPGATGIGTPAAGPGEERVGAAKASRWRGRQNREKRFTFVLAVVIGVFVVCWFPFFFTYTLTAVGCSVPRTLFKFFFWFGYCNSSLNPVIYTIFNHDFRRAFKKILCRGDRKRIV

[9] = biological target: T6, Alpha-1A adrenergic receptor (Homo sapiens, UniProt P35348)
T6 sequence (P35348 whole entry): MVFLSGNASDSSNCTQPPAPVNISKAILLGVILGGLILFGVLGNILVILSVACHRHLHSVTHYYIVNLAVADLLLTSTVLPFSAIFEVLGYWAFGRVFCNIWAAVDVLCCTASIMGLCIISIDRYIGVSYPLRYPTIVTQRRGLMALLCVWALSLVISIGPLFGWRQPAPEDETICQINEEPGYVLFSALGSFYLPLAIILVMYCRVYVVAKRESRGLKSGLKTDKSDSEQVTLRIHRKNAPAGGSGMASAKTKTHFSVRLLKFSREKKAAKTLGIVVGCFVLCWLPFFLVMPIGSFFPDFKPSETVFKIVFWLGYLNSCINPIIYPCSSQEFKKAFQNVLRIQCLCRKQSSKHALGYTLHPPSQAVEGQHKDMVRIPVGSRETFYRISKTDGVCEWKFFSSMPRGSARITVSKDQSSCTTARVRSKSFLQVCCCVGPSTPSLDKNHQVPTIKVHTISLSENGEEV

[10] = biological target: Sodium channel protein type 5 subunit alpha (Homo sapiens, UniProt Q14524); format: functional, cell-based
Note: assay procedure not described here.

SMILES	AC50 (Androgen receptor)	AC50 [1]	AC50 (Histamine H1 receptor [2])	AC50 (Histamine H1 receptor [3])	AC50 [4]	AC50 [5]	AC50 (Glucagon receptor)	AC50 [6]	AC50 (Histamine H2 receptor)	AC50 [7]	AC50 [8]	AC50 [9]	AC50 [10]
O=C(O)c1nn(Cc2ccc(Cl)cc2Cl)c2ccccc12 [LONIDAMINE]	> 30 µM	> 30 µM	> 30 µM	> 30 µM	–	–	–	–	–	–	–	–	–
NS(=O)(=O)c1ccc(N2CCCCS2(=O)=O)cc1	> 30 µM	> 30 µM	> 30 µM	> 30 µM	> 30 µM	–	–	–	–	–	–	–	–
O=C(O[C@H]1C[N+]2(CCCOc3ccccc3)CCC1CC2)C(O)(c1cccs1)c1cccs1 [ACLIDINIUM BROMIDE]	–	–	–	–	–	> 10 µM	> 30 µM	> 30 µM	> 10 µM	> 30 µM	2.27 µM	5.1 µM	–
CCCCCCCC(=O)CC[C@@H]1[C@@H](C/C=C\CCCC(=O)O)[C@@H](O)C[C@H]1O [UNOPROSTONE]	> 30 µM	> 30 µM	> 30 µM	> 30 µM	> 30 µM	–	–	–	–	–	–	–	> 50 µM
CC1NCCOC1c1ccccc1 (centres undefined) [PHENMETRAZINE]	–	–	> 30 µM	> 30 µM	–	> 10 µM	> 30 µM	> 30 µM	–	> 30 µM	–	–	–
CC(NC(C)(C)C)C(=O)c1cccc(Cl)c1 (centres undefined) [BUPROPION]	–	–	–	–	–	> 10 µM	> 30 µM	> 30 µM	> 10 µM	> 30 µM	> 10 µM	> 10 µM	> 30 µM
Oc1cc(O)c2c(c1)O[C@H](c1ccc(O)c(O)c1)[C@@H](O)C2 [CIANIDANOL]	–	–	> 30 µM	> 30 µM	–	> 10 µM	> 30 µM	> 30 µM	> 10 µM	> 30 µM	> 10 µM	–	–
CN1C2CCCC1CC(NC(=O)c1nn(C)c3ccccc13)C2 (centres undefined) [GRANISETRON]	–	–	–	–	–	> 10 µM	> 30 µM	> 30 µM	> 10 µM	> 30 µM	> 10 µM	> 10 µM	> 30 µM
CCOC(=O)C1=C(C)NC(C)=C(C(=O)OC)C1c1cccc(Cl)c1Cl (centres undefined) [FELODIPINE]	–	–	–	–	–	> 10 µM	> 30 µM	> 30 µM	> 10 µM	> 30 µM	> 10 µM	> 10 µM	–
Cc1ccc(-c2ncc(Cl)cc2-c2ccc(S(C)(=O)=O)cc2)cn1 [ETORICOXIB]	–	–	> 30 µM	> 30 µM	–	> 10 µM	> 30 µM	> 30 µM	> 10 µM	> 30 µM	> 10 µM	> 10 µM	–
CS(=O)(=O)NC(=O)CCC/C=C\C[C@H]1C(=O)C[C@@H](O)[C@@H]1/C=C/[C@@H](O)COc1ccccc1 [SULPROSTONE]	–	> 30 µM	> 30 µM	> 30 µM	> 30 µM	–	–	–	–	–	–	–	–
CCC(=O)O[C@H](CC(=O)O)C[N+](C)(C)C [LEVOCARNITINE PROPIONATE]	> 30 µM	> 30 µM	> 30 µM	> 30 µM	> 30 µM	–	–	–	–	–	–	–	–
COc1ccc2c3c1O[C@H]1C(=O)CC[C@H]4[C@@H](C2)N(C)CC[C@]314 [HYDROCODONE]	–	–	–	–	–	> 10 µM	> 30 µM	> 30 µM	> 10 µM	> 30 µM	> 10 µM	> 10 µM	> 50 µM
O=C1CN=C(c2ccccc2Cl)c2cc([N+](=O)[O-])ccc2N1 [CLONAZEPAM]	–	–	–	–	–	> 10 µM	> 30 µM	> 30 µM	> 10 µM	> 30 µM	> 10 µM	> 10 µM	–
CN1C(=O)CN=C(c2ccccc2F)c2cc([N+](=O)[O-])ccc21 [FLUNITRAZEPAM]	–	–	–	–	–	> 10 µM	> 30 µM	> 30 µM	> 10 µM	> 30 µM	> 10 µM	> 10 µM	–
